{"source": "patent US8293481B2", "about": "“Biomarkers for chronic vascular dysfunction” (Mayo Foundation for Medical Education and Research, priority 2006, dated 2012)", "test_in_all_cases": "Affymetrix microarray gene expression in aorta post-infarction", "format_in_all_cases": "in vivo, rat", "key": {"[1]": {"test_system": "cytochrome c oxidase subunit Va (Cox5a)", "conditions": "4 weeks post-infarction, higher with surgery", "text": "(§1) After intubation, rats were ventilated continuously (room air) using a small animal ventilator (Model 683, Harvard Apparatus, Holliston, Mass.). A left lateral thoracotomy incision was made along the 5th intercostal space and after the pericardium was opened, the heart was exteriorized using a retention suture placed at the apex. The left anterior descending coronary artery (LAD) was ligated twice using 6-0 prolene suture (Ethicon, Cornelia, Ga.). After chest closure with running 3-0 vicryl suture (Ethicon), rats were put in a recovery chamber with a heating pad and warming light. The post-operative survival rate reached 80%. […] Rats were fed a standard diet of Teklad rodent feed (Harlan) ad libitum and kept on a 12:12 h light-dark cycle. Rats were sacrificed at designated time intervals of 2 weeks and 4 weeks after surgery. […] Isolation of total RNA: […] Surrounding peri-adventitial tissues, fat, and endothelium were then carefully cleaned away and removed. The remaining vascular smooth muscle was then frozen with liquid nitrogen, pulverized into fine powder, and resuspended in 600 μl of Buffer RLT with β-ME (10 μl β-ME: 1 ml Buffer RLT, Qiagen, Valencia, Calif.). The lysate was pipetted directly onto a QIAshredder spin column (Qiagen) placed in a 2 ml collection tube and centrifuged for 5 minutes at 14000 rpm, 4° C. The supernatant was transferred to a new microcentrifuge tube and 1 volume of 70% ethanol was added and mixed. The cleared lysate was then transferred to an RNeasy mini-column (Qiagen) placed in a 2 ml collection tube and spun for 15 seconds at ≧10,000 rpm, 4° C. The flow-through was discarded and 700 μl of Buffer RW1 (Qiagen) was added to the RNeasy column. After the column was spun for 15 seconds at ≧10,000 rpm (4° C.), it was transferred into a new 2 ml collection tube, washed, spun twice with 500 μl Buffer RPE (Qiagen), and eluted with 40 μl of RNase-free water using a microcentrifuge (≧10,000 rpm, 4° C.) for 1 minute. Final RNA samples were stored at −20° C. to prevent degradation. Determination of gene expression using Affymetrix microarrays: Gene expression analysis was conducted using a GeneChip Rat Genome 230 2.0 Array (Affymetrix, West Sacramento, Calif.), with sequences selected from the GENBANK® (World Wide Web at ncbi.nlm.nih.gov) database for expressed sequence tags (dbEST), and Reference Sequence (RefSeq) (Benson et al. (2007) Nucleic Acids Res. 35:D21-25; and Boguski et al. (1993) Nat. Genet. 4:332-333). These sequence clusters were created from the UniGene database (Wheeler et al. (2003) Nucleic Acids Res. 31:28-33; Build 99, June 2002, World Wide Web at ncbi.nlm.nih.gov) and then refined by analysis and comparison with the publicly available draft assembly of the rat genome from the Baylor College of Medicine Human Genome Sequencing Center (Gibbs et al. (2004) Nature 428:493-521). […] GENECHIP® Scanner 3000 and GENECHIP® Operating Software (GCOS) v1.1.1 (Affymetrix, West Sacramento, Calif.), enabled for high-resolution scanning, was used for the final microarray analysis. Differentially expressed genes are listed according to their GeneID number in the National Center for Biotechnology Information (NCBI) database. To ensure accurate analysis, a minimum of 3 ng of good quality total RNA at a concentration of ≧500 pg/μl was required. RNA (1 ng) was tested for its quality using an Agilent 2100 bioanalyzer (Agilent Technologies). A RNA Integrity Number (RIN) was assigned to each sample, and RIN ≧6 was considered satisfactory for proceeding with the microarray analysis. Statistics: The Affymetrix array was used to determine gene expression at 2 weeks and 4 weeks. Uninfarcted control aorta was then compared with both captopril and placebo treated aorta. Similarly, uninfarcted control portal vein was compared with both captopril and placebo treated portal vein. […]"}, "[2]": {"test_system": "acyl-CoA thioesterase (ACOT8)", "conditions": "2 weeks, infarcted rats with or without captopril", "text": "as §1"}, "[3]": {"test_system": "trimethyllysine hydroxylase epsilon (Tmlhe)", "conditions": "4 weeks, surgery group without treatment less than baseline control", "text": "as §1"}, "[4]": {"test_system": "regulated endocrine-specific protein 18 (Resp18)", "conditions": "4 weeks post-infarction, higher with surgery", "text": "as §1"}, "[5]": {"test_system": "Sel (suppressor of lin-12) 1 homolog 1h. (Sel1h)", "conditions": "2 weeks, infarcted rats with or without captopril", "text": "as §1"}, "[6]": {"test_system": "trafficking protein particle complex 1 (Trappc1)", "conditions": "4 weeks post-infarction, higher with surgery", "text": "as §1"}, "afadin (Af6)": {"test_system": "afadin (Af6)", "conditions": "2 weeks, infarcted rats with or without captopril", "text": "as §1"}, "[7]": {"test_system": "glycerophosphodiester phosphodiesterase (MIR16)", "conditions": "2 weeks, infarcted rats with or without captopril", "text": "as §1"}, "TAO kinase 1 (Taok1)": {"test_system": "TAO kinase 1 (Taok1)", "conditions": "2 weeks, infarcted rats with or without captopril", "text": "as §1"}, "glutaminase 2 (Gls2)": {"test_system": "glutaminase 2 (Gls2)", "conditions": "4 weeks, highest in the infarct group without therapy", "text": "as §1"}, "[8]": {"test_system": "CCAAT/enhancer binding protein (C/EBP) gamma (Cebpg)", "conditions": "4 weeks post-infarction, higher with surgery", "text": "as §1"}, "[9]": {"test_system": "chemokine (C-X-C motif) ligand 12 (Cxcl12)", "conditions": "4 weeks, surgery group without treatment less than baseline control", "text": "as §1"}}, "data": [{"molecule": "C[C@H](CS)C(=O)N1CCC[C@H]1C(=O)O", "note": "[Captopril, 1-[(2S)-3-mercapto-2-methylpropionyl]-L-proline]", "values": [{"measurement": "Cox5a expression in the aorta with captopril therapy versus surgery alone", "setting": "[1]", "result": "further increase in expression"}, {"measurement": "ACOT8 aortic expression level versus control rats without surgery", "setting": "[2]", "result": "higher"}, {"measurement": "Tmlhe expression in the aorta with captopril", "setting": "[3]", "result": "increased expression"}, {"measurement": "Resp18 expression in the aorta with captopril therapy versus surgery alone", "setting": "[4]", "result": "further increase in expression"}, {"measurement": "Sel1h aortic expression level versus control rats without surgery", "setting": "[5]", "result": "higher"}, {"measurement": "Trappc1 expression in the aorta with captopril therapy versus surgery alone", "setting": "[6]", "result": "further increase in expression"}, {"measurement": "Af6 aortic expression level versus control rats without surgery", "setting": "afadin (Af6)", "result": "higher"}, {"measurement": "MIR16 aortic expression level versus control rats without surgery", "setting": "[7]", "result": "higher"}, {"measurement": "Taok1 aortic expression level versus control rats without surgery", "setting": "TAO kinase 1 (Taok1)", "result": "higher"}, {"measurement": "Gls2 expression in the aorta, captopril treated group among the groups", "setting": "glutaminase 2 (Gls2)", "result": "lowest"}, {"measurement": "Cebpg expression in the aorta with captopril therapy versus surgery alone", "setting": "[8]", "result": "further increase in expression"}, {"measurement": "Cxcl12 expression in the aorta with captopril", "setting": "[9]", "result": "increased expression"}]}]}
